The subject of data set [1] is patients diagnosed attention-deficit hyperactivity disorder. Put plainly: administration to patients diagnosed attention-deficit hyperactivity disorder. In kind it is in vivo, human. From the text:
The “attention-deficit hyperactivity disorder,” as referred to herein, to which the composition of the present invention is applied is a symptom judged on the basis of a diagnostic method for ADHD, as defined in DSM-IV Seishin Shogai no Shindan•Tokei Manyuaru (Diagnosis and Statistic Manuals for DSM-IV Mental Disorders) (published by Igakushoin, 1996). Concretely, an individual with ADHD meets the following criteria.
In addition, the diagnosis is made under the conditions that some of these symptoms have caused problems before reaching 7-years old, and that any problems take place at present in two or more different locations (examples: school and home). Also, the judgment is made only in the case where serious disorders are recognized in social life, schoolwork and vocational work, and any of the symptoms are not caused by other diseases.
The exhibition of the action for mitigating or alleviating attention-deficit hyperactivity disorder by theanine can be evaluated by a clinical test in which theanine is administered to a patient who meets the above-mentioned [Criteria for Diagnosis], and any ameliorative effects on attention-deficit hyperactivity disorder are observed, as compared to that before the administration of theanine.
Five patients who were diagnosed attention-deficit hyperactivity disorder by doctors were administered with a composition containing L-theanine. The composition was prepared so that L-theanine was mixed with crystalline cellulose, sucrose fatty acid ester, reducing maltose, silicon dioxide, lactose and aspartame so as to have the content of L-theanine of 20% by weight, and tableting the mixture to prepare a tablet.

For the next data set, the system named is mouse. Nature of the data set: acute toxic test using a mouse. The conditions noted are these: oral administration at 5 g/kg. It is filed as in vivo. An excerpt:
The theanine used in the present invention has high safety. […] Also, especially L-theanine is known as a main component of umami (tastiness) of the green tea, and is also used as a food additive giving umami, without the limitation of its added amount under the regulation for food hygiene. Moreover, contrary to the conventional drugs, since there is no side effect by theanine at all, the amelioration of attention-deficit hyperactivity disorder can be safely and effectively achieved according to the composition of the present invention.

3 compounds from patent US20060004026A1, “Compositions for ameliorating attention-deficient/hyperactivity disorder” (priority 2001, published 2006) can be followed below.

Take `CCNC(=O)CC[C@H](N)C(=O)O` [L-theanine]: the “effect judged by the doctor in charge” value in data set [1] (Patient 1, 50 mg/day over 8 weeks) is on record as “effective”; in data set [1] (Patient 2, 200 mg/day over 10 weeks), “effective”. Further, the “ADHD symptoms after the termination of the administration” value in data set [1] (Patient 1, 50 mg/day over 8 weeks, tablet with 20% by weight L-theanine) is “substantially disappeared”; in data set [1] (Patient 2 (person one), 200 mg/day over 10 weeks) it was “substantially disappeared”; in data set [1] (Patient 5, 60 mg/day over 1 week), “remarkably ameliorated”. In addition, in data set [1] (Patient 3, 100 mg/day together with Ritalin over 1 week), the ADHD symptoms entry is given as “substantially disappeared”. Besides, the “behaviour at school on the day of administration” value in data set [1] (Patient 4, 200 mg/day only once before school) is “could attend the classes without any problems”. Also, the “state of symptoms in the following day (maintenance by a single dosage)” value in data set [1] (Patient 4, 200 mg/day only once, following day) is “returned to the original state of symptoms”.

As for `COC(=O)C(c1ccccc1)C1CCCCN1` (stereo not drawn) [Ritalin, methylphenidate, reference compound], the “ADHD symptoms during the administration” value in data set [1] (Patient 2, earlier treatment with Ritalin) is listed as “stabilized”. Also, in data set [1] (Patient 2, earlier treatment with Ritalin, administration was stopped), the side effects entry is on record as “serious”.

Regarding `CCNC(=O)CC[C@H](N)C(=O)O` [theanine, γ-glutamylethylamide], in the data set on mouse, the “abnormalities in the general states, weight and the like” value is “no abnormalities”; the cases of death entry is listed as “no cases of death”.
